Measured values: patent US20090143279A1 (priority 2007, published 2009)
Like-named read-outs stand apart in the source and are kept apart here.

Tests used:
cytochrome c = type: cell-based, mouse
reactive oxygen species = type: cell-based, mouse
nuOXPHOS transcripts = type: cell-based, mouse
mtOXPHOS transcripts = type: cell-based, mouse
OXPHOS gene expression = type: cell-based, mouse
[1] = tested on: cellular dehydrogenase activity
[2] = tested on: mitochondrial membrane potential; type: cell-based, mouse
[3] = composite Z-score vs DMSO, Conc 20 μM
[4] = normalized composite Z-score vs mock-treated (DMSO) wells, Conc 20 μM
[5] = composite Z-score vs mock-treated (DMSO) wells, Conc 20 μM
[6] = composite Z-score vs DMSO wells, Conc 20 μM
[7] = composite Z-score vs DMSO, Conc 8 μM
[8] = Conc 20 μM, normalized score vs mock-treated (DMSO) wells

## N=C(N)N.N=C(N)N.O=C(O)O [guanidine carbonate]
C2C12 myotubes; [3]
  Viability: −0.835
Cytochrome c; [3]
  cyt c: −1.206
Reactive oxygen species; [3]
  ROS: 0.401
nuOXPHOS transcripts; [3]
  nucOX: −1.112
mtOXPHOS transcripts; [3]
  mitoOX: −0.993
OXPHOS gene expression; [3]
  GE-HTS: −1.142
[1]; [3]
  MTT: −0.683
[2]; [3]
  ΔΨm: −0.252

## Cc1cc(OC(=O)c2c(C)cc(OC(=O)c3c(C)cc(O)cc3O)cc2O)cc(O)c1C(=O)O [gyrophoric acid]
C2C12 myotubes; [4]
  Viability: −0.579
Cytochrome c; [4]
  cyt c: −0.557
Reactive oxygen species; [4]
  ROS: 0.897
nuOXPHOS transcripts; [4]
  nucOX: −0.546
mtOXPHOS transcripts; [4]
  mitoOX: −0.289
OXPHOS gene expression; [4]
  GE-HTS: −0.471
[1]; [4]
  MTT: −0.977
[2]; [4]
  ΔΨm: −0.842

## CCOC(=O)c1c(C)cc(O)c(C=O)c1O [haematommic acid, ethyl ester]
C2C12 myotubes; [5]
  Viability: −0.557
Cytochrome c; [5]
  cyt c: −0.104
Reactive oxygen species; [5]
  ROS: 0.478
nuOXPHOS transcripts; [5]
  nucOX: 0.387
mtOXPHOS transcripts; [5]
  mitoOX: 0.537
OXPHOS gene expression; [5]
  GE-HTS: 0.450
[1]; [5]
  MTT: −0.761
[2]; [5]
  ΔΨm: −0.120

## Cc1cc(O)c(C=O)c(O)c1C(=O)O [haematommic acid]
C2C12 myotubes; [3]
  Viability: −0.412
Cytochrome c; [3]
  cyt c: 0.631
Reactive oxygen species; [3]
  ROS: −1.077
nuOXPHOS transcripts; [3]
  nucOX: −0.078
mtOXPHOS transcripts; [3]
  mitoOX: −1.067
OXPHOS gene expression; [3]
  GE-HTS: −0.410
[1]; [3]
  MTT: −0.740
[2]; [3]
  ΔΨm: 0.002

## CC1=C(CCC(=O)O)c2cc3[nH]c(cc4nc(cc5[nH]c(cc1n2)c(C)c5C(C)O)C(C)=C4C(C)O)c(C)c3CCC(=O)O (stereo not shown) [haematoporphyrin]
C2C12 myotubes; [3]
  Viability: −1.933
Cytochrome c; [3]
  cyt c: 0.324
Reactive oxygen species; [3]
  ROS: 1.666
nuOXPHOS transcripts; [3]
  nucOX: 0.251
mtOXPHOS transcripts; [3]
  mitoOX: 0.416
OXPHOS gene expression; [3]
  GE-HTS: 0.309
[1]; [3]
  MTT: −3.312
[2]; [3]
  ΔΨm: −3.662

## O=C(O)c1ccc(S(=O)(=O)N(Cl)Cl)cc1 [halazone]
C2C12 myotubes; [6]
  Viability: −0.242
Cytochrome c; [6]
  cyt c: −0.942
Reactive oxygen species; [6]
  ROS: 0.779
nuOXPHOS transcripts; [6]
  nucOX: 0.593
mtOXPHOS transcripts; [6]
  mitoOX: 0.385
OXPHOS gene expression; [6]
  GE-HTS: 0.565
[1]; [6]
  MTT: −0.445
[2]; [6]
  ΔΨm: −0.334

## CC1(C)O[C@@H]2C[C@H]3[C@@H]4CCC5=CC(=O)CC[C@]5(C)[C@@]4(F)[C@@H](O)C[C@]3(C)[C@]2(C(=O)CCl)O1 [halcinonide]
C2C12 myotubes; [3]
  Viability: 0.106
Cytochrome c; [3]
  cyt c: −0.794
Reactive oxygen species; [3]
  ROS: 0.624
nuOXPHOS transcripts; [3]
  nucOX: 0.284
mtOXPHOS transcripts; [3]
  mitoOX: 0.831
OXPHOS gene expression; [3]
  GE-HTS: 0.492
[1]; [3]
  MTT: −0.789
[2]; [3]
  ΔΨm: 0.570

## CCCCN(CCCC)CCC(O)c1cc2c(Cl)cc(Cl)cc2c2cc(C(F)(F)F)ccc12 (stereo not shown) [halofantrine]
C2C12 myotubes; [7]
  Viability: 0.132
Cytochrome c; [7]
  cyt c: −0.236
Reactive oxygen species; [7]
  ROS: 0.012
nuOXPHOS transcripts; [7]
  nucOX: −0.239
mtOXPHOS transcripts; [7]
  mitoOX: −0.969
OXPHOS gene expression; [7]
  GE-HTS: −0.508
[1]; [7]
  MTT: −0.174
[2]; [7]
  ΔΨm: −0.668

## C[C@@H]1O[C@@H](O[C@H]2[C@H](O[C@H]3CC[C@@]4(C)[C@@H](CC[C@]5(C)[C@@H]4CC=C4[C@@H]6CC(C)(C)CC[C@]6(C(=O)O[C@@H]6O[C@H](CO[C@@H]7O[C@H](CO)[C@@H](O[C@@H]8O[C@@H](C)[C@H](O)[C@@H](O)[C@H]8O)[C@H](O)[C@H]7O)[C@@H](O)[C@H](O)[C@H]6O)CC[C@]45C)[C@]3(C)CO)OC[C@H](O)[C@@H]2O)[C@H](O)[C@H](O)[C@H]1O [hederacoside C]
C2C12 myotubes; [8]
  Viability (composite Z-score): −0.672
Cytochrome c; [8]
  cyt c (composite Z-score): 0.471
Reactive oxygen species; [8]
  ROS (composite Z-score): 0.079
nuOXPHOS transcripts; [8]
  nucOX (composite Z-score): −0.645
mtOXPHOS transcripts; [8]
  mitoOX (composite Z-score): −0.952
OXPHOS gene expression; [8]
  GE-HTS (composite Z-score): −0.809
[1]; [8]
  MTT (composite Z-score): −1.226
[2]; [8]
  ΔΨm (composite Z-score): −0.559

## CC1(C)CC[C@]2(C(=O)O)CC[C@]3(C)C(=CC[C@@H]4[C@@]5(C)CC[C@H](O)[C@@](C)(CO)[C@@H]5CC[C@]43C)[C@@H]2C1 [hederagenin]
C2C12 myotubes
  Viability: 0.310
Cytochrome c
  cyt c: 0.945
Reactive oxygen species
  ROS: 0.385
nuOXPHOS transcripts
  nucOX: −0.630
mtOXPHOS transcripts
  mitoOX: −0.540
OXPHOS gene expression
  GE-HTS: −0.654
[1]
  MTT: −1.259
[2]
  ΔΨm: −0.901

## C=C1C(=O)O[C@@H]2C[C@@]3(C)CCC[C@H](C)C3=C[C@H]12 [helenine]
C2C12 myotubes; [3]
  Viability: −4.599
Cytochrome c; [3]
  cyt c: −5.312
Reactive oxygen species; [3]
  ROS: −2.409
nuOXPHOS transcripts; [3]
  nucOX: −2.240
mtOXPHOS transcripts; [3]
  mitoOX: −1.624
OXPHOS gene expression; [3]
  GE-HTS: −2.156
[1]; [3]
  MTT: −6.498
[2]; [3]
  ΔΨm: −3.676
